Data from publication PMC11432795, “Mutagenesis of the Peptide Inhibitor of ASIC3 Channel Introduces Binding to Thumb Domain of ASIC1a but Reduces Analgesic Activity” (Marine Drugs, 2024).
Positions of bridges follow the written chain, without caps; N, C: chain ends. Residues, ends and D or L forms follow the SMILES beside them.

Experiments:
rat ASIC1a channel = biological target: T1, rat ASIC1a channel (Rattus norvegicus, UniProt P55926); experiment: Two-electrode voltage clamp, rat ASIC1a in X. laevis oocytes; format: cell-based
T1 construct: expressed in transfected cells; host or cells: Xenopus laevis oocytes injected with mRNA made from a pCI-rASIC1a plasmid
T1 sequence (P55926 1-526): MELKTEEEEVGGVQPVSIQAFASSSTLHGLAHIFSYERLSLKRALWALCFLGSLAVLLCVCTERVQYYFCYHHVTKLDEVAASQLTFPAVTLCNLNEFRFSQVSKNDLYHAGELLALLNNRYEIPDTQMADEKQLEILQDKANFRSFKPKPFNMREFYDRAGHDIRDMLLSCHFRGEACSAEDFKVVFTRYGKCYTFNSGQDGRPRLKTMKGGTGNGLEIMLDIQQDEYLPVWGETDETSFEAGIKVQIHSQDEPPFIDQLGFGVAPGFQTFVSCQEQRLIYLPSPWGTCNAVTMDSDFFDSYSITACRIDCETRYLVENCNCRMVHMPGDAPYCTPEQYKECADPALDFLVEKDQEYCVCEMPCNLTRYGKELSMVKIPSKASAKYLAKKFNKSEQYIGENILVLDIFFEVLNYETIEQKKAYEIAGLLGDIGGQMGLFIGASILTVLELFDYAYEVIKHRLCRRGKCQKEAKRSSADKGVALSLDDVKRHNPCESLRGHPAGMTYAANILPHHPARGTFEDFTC
Description: Figure 3 The effect of mutant peptides S16K and A23K on rat ASIC1a and ASIC3 channels. […] (B) Dose–response curves for the inhibitory effect of mutant peptides on ASIC1a. Each data point represents data from 5 cells. (C) Representative current traces of Ugr9-1, S16K, and A23K at a concentration of 12.5 µM on ASIC3. […] Each point represents data from 5 cells. The depicted currents were induced by a pH 5.5 stimulus following a conditioning pH of 7.4, with peptides applied for 30 s before the pH stimulus. The holding potential (Vh) was −50 mV, and the time interval between applications ranged from 1 to 2 min. Data are presented as mean ± S.E.M.
A small portion of the ovary was isolated from frogs under anesthesia induced by a 0.17% solution of procaine methanesulphonate (MS222) (Sigma), followed by treatment with collagenase (1 mg/mL) at room temperature for 2 h. Oocytes at stages IV and V, devoid of follicular membranes, were transferred to ND-96 medium (containing 96 mM NaCl, 5 mM HEPES, 2 mM KCl, 1.8 mM CaCl2, 1 mM MgCl2, pH 7.4). mRNA synthesis was performed from pcDNA3.1 vectors (Invitrogen, Carlsbad, CA, USA) containing the rat ASIC3 gene, as well as pCI vectors containing genes for rat ASIC1a, its mutant analogues, and ASIC1b. mRNA (2.5–10 ng) was then injected into the oocytes. For the ASIC1a/3 heteromeric channels, the mRNA encoding the ASIC1a and ASIC3 subunits were injected in a 1:5 ratio, respectively. Subsequently, the oocytes were incubated for 2–3 days at a temperature of 17–19 °C in ND96 medium supplemented with gentamicin and streptomycin (20 µg/mL each).
Whole-cell electrophysiological recordings of ASIC channels were conducted using a two-electrode voltage-clamp setup. Microelectrodes were filled with 3 M KCl. Recordings from oocytes were carried out at a holding potential of −50 mV, with data filtered at 10 Hz and sampled at a rate of 100 Hz using an L780M ADC (LCard, Moscow, Russia). The synchronized delivery of solutions into the chamber and recording of electrophysiological results were carried out using in-house software v.2. Activation of ASIC channels occurred through rapid pH changes in the solution, achieved by replacing the working solution in the chamber with ND96-based solutions at varying pH levels. Specifically, HEPES was substituted with 10 mM MES for pH 5.5–6.5 and MOPS for pH 6.7–7.0.
Fresh peptide solutions were meticulously prepared in ND96 buffer with a pH of 7.43 immediately before experiments, with strict control over the pH levels. Peptides were applied for 30 s at a conditioning pH of 7.43 before acid stimulation of the channel. The interval between applications was maintained at a minimum of 1.5 to 2 min.
Electrophysiological data analysis was conducted using OriginPro 2018 software (OriginLab, Northampton, MA, USA). Dose–response relationships for Ugr9a-1, S16K, and A23K peptides were fitted using a Hill function: F1(x) = A − A/(1 + (x/IC50)^nH), where F1(x) represents the amplitude of the current at concentration x of the peptide, A is the maximum amplitude of the current, IC50 is the half-maximum inhibitory concentration of the peptide, and nH is the Hill coefficient.

[1] = Acetic acid-induced writhing (AAW pain model); format: in vivo, ICR mice; conditions: for reduction of number of writhes, significance by dose: 0.002, 0.02, 0.2 mg/kg i.m.
Description: In both the AAW and CFA-induced hyperalgesia, Ugr9-1 and A23K peptides were administered intramuscularly one hour before the experiments at doses of 0.002, 0.02, and 0.2 mg/kg. In the AAW test, analgesic efficacy was evaluated by assessing the reduction in the number of involuntary writhing episodes induced by intraperitoneal injection of a 0.6% acetic acid solution.
Adult male ICR mice (Animal Breeding Facility Branch of Shemyakin–Ovchinnikov Institute of Bioorganic Chemistry, Russian Academy of Sciences, Pushchino, Russia), weighing 20–25 g, were utilized. Animals were housed under controlled conditions, with a room temperature of 23 ± 2 °C, a 12 h light–dark cycle, and ad libitum access to food and water. Test substances were dissolved in saline. Peptides (Ugr9-1 and A23K at doses of 0.002, 0.02, and 0.2 mg/kg) and saline (for the control group) were administered intramuscularly 60 min prior to testing.
The abdominal constriction test of visceral pain (acetic acid-induced writhing pain model) and hyperalgesia induced by complete Freund’s adjuvant (CFA-induced inflammatory pain model) were performed as previously described.
Statistical analysis was conducted using analysis of variance (ANOVA) with post hoc Tukey’s test, and data are presented as mean ± standard deviation (S.D.).

[2] = one hour before testing, 0.6% acetic acid i.p., n = 7

Structure (SMILES)	inhibition at 10 µM (rat ASIC1a channel; 10 µM, pH 5.5 stimulus, conditioning pH 7.4, peptide 30 s, mean ± SEM, n = 5, read-out: inhibitory effect on wild-type ASIC1a)	activity on ASIC1a compared to S16K (rat ASIC1a channel; A23K versus S16K)	Hill slope (nH) (rat ASIC1a channel; inhibition of rat ASIC1a, pH 5.5 stimulus, conditioning pH 7.4, mean ± S.E.M., 5 cells)	IC50 (rat ASIC1a channel; rat ASIC1a, X. laevis oocytes, TEVC, Vh −50 mV, pH 5.5 stimulus, conditioning pH 7.4, peptide 30 s before stimulus, mean ± S.E.M., 5 cells, read-out: half-maximal inhibitory concentration (IC50))	reduction of writhing, times less effective than Ugr9-1 ([1]; 0.02 mg/kg i.m., versus Ugr9-1)	reduction of number of writhes, significance by dose [1, 2]	effect on ASIC1a at 50 µM (rat ASIC1a channel; 50 µM, representative current traces, pH 5.5 stimulus, conditioning pH 7.4)	activity towards rASIC1a (rat ASIC1a channel; pH 5.5 stimulus, conditioning pH 7.4)	inhibition of number of writhes (maximum effect) ([1]; 0.02 mg/kg i.m., one hour before testing, 0.6% acetic acid i.p., n = 7)
CC[C@H](C)[C@H](N)C(=O)N[C@@H](CO)C(=O)N[C@H](C(=O)N[C@@H](CC(=O)O)C(=O)N1CCC[C@H]1C(=O)N1CCC[C@H]1C(=O)N[C@H]1CSSC[C@@H]2NC(=O)[C@H](CC(N)=O)NC(=O)CNC(=O)[C@H](CO)NC(=O)CNC(=O)[C@H](CC(=O)O)NC(=O)[C@H](CCCNC(=N)N)NC(=O)[C@H](Cc3c[nH]cn3)NC(=O)[C@H](Cc3ccc(O)cc3)NC(=O)[C@H](CSSC[C@@H](C(=O)NCC(=O)N[C@@H](C)C(=O)N[C@H](C(=O)O)C(C)C)NC(=O)CNC(=O)[C@H](Cc3ccc(O)cc3)NC(=O)[C@H](CCCCN)NC(=O)[C@H](CC(=O)O)NC(=O)[C@H](Cc3ccc(O)cc3)NC(=O)[C@H](C(C)C)NC2=O)NC(=O)[C@H](Cc2ccccc2)NC(=O)[C@H](CCCNC(=N)N)NC1=O)[C@@H](C)CC [A23K] (H-ISIDPPCRFCYHRDGSGNCVYDKYGCGAV-OH; disulfide 7-19, 10-26)	74.9 ± 6.5%	over three times more active than S16K	2.84 ± 0.31	6.72 µM	1.5 times	significant reduction in writhing episodes only at a dose of 0.02 mg/kg			
CC[C@H](C)[C@H](N)C(=O)N[C@@H](CO)C(=O)N[C@H](C(=O)N[C@@H](CC(=O)O)C(=O)N1CCC[C@H]1C(=O)N1CCC[C@H]1C(=O)N[C@H]1CSSC[C@@H]2NC(=O)[C@H](CC(N)=O)NC(=O)CNC(=O)[C@H](CO)NC(=O)CNC(=O)[C@H](CC(=O)O)NC(=O)[C@H](CCCNC(=N)N)NC(=O)[C@H](Cc3c[nH]cn3)NC(=O)[C@H](Cc3ccc(O)cc3)NC(=O)[C@H](CSSC[C@@H](C(=O)NCC(=O)N[C@@H](C)C(=O)N[C@H](C(=O)O)C(C)C)NC(=O)CNC(=O)[C@H](Cc3ccc(O)cc3)NC(=O)[C@H](C)NC(=O)[C@H](CC(=O)O)NC(=O)[C@H](Cc3ccc(O)cc3)NC(=O)[C@H](C(C)C)NC2=O)NC(=O)[C@H](Cc2ccccc2)NC(=O)[C@H](CCCNC(=N)N)NC1=O)[C@@H](C)CC [Ugr9-1] (H-ISIDPPCRFCYHRDGSGNCVYDAYGCGAV-OH; disulfide 7-19, 10-26)						significantly decreased the number of writhes at all three doses	lack of effect	no activity	30%
